Patent US10710951B2, “Pharmaceutical composition containing verbenone derivative for treating or preventing neurodegenerative disease” (KOREA UNIVERSITY RESEARCH AND BUSINESS FOUNDATION, priority 2012, dated 2020)

Columns and labels:
cortical neurons = experiment: NMDA-induced excitotoxicity, LDH release; assay type: cell-based, SD rats; parameters: dose or concentration left out as unconfirmed; conditions: cultured cortical neuronal cells; sample 30 min before NMDA; lower than MK-801; FIG. 2
Procedure: Cortical neurons (5×10^5 cells/ml) were isolated from fetal SD rats (16-17 days). Specifically, brain cortex was cut, and cells were isolated from the tissue by repeated trituration using a Pasteur pipette in buffer (Hanks' Balanced Salt Solution, HBSS). The cell suspension (1.8×10^3 cells/mm^2) was dispensed on a plate pretreated with poly-D-lysine ([…])/laminin ([…]). The cells were placed in 10% FBS-containing NBM medium, and incubated in a […]/5% CO2 atmosphere at 37° C. After 15-16 days of the incubation, the experiment was performed.
After incubation on the plate for 15-18 days, the cortical neurons were exposed to NMDA ([…]) in a solution (Mg^2+-free Earle's balanced salt solution (EBSS); containing 1.8 mM CaCl2 and 10 mM glycine) for 10 minutes. After exposure, the cells were washed with MgSO4-containing EBSS solution, and incubated in 25 mmol/L glucose-containing DMEM medium in a 5% CO2 incubator at 37° C. 30 Minutes before treatment with NMDA, the cells were treated with each sample […].
In order to measure cell injury or cell death, the amount of LDH released into the medium was measured using a cell viability measurement kit (Sigma-Aldrich, St. Louis, Mo.). Cell viability was expressed as the percentage of LDH relative to the total cellular LDH level measured in sister cultures lysed by freezing-thawing after the experiment.

[1] = DPPH assay (ability to scavenge nitrogen radicals); parameters: DPPH assay % inhibition: concentration or dose not given beside the values
Procedure: The samples were mixed with DPPH (23.6 μg/ml, in ethanol), and incubated in dark at 37° C. for 30 minutes. The DPPH absorbance reduced by each sample was measured at 517 nm. Vitamin C (Sigma-Aldrich, St. Louis, Mo.) was used as a control, and the DPPH inhibition value (%) was calculated using the following equation: Scavenging activity (%)=[Absmax(Vit.C)−Abssample]/[Absmax(Vit.C)−Absmin(Vit.C)]×100. Equation 1
(§1) The antioxidant activities of the verbenone derivatives of the present invention were measured by the following two different chemical reactions: (1) a single electron transfer-based assay that is a […] [DPPH] assay that measures a decrease in DPPH acting as a free radical generator and a termination probe; and (2) a hydrogen atom transfer assay that is an oxygen radical absorbance capacity [[…]] assay that measures the competitive reaction kinetics of a peroxyl radical generator (AAPH; 2,2′-azobis-(2-methylpropionamide)-dihydrochloride) and each sample acting as an antioxidant for oxidizable fluorescent probe (fluorescein).

[2] = Oxygen radical absorbance capacity (ORAC) assay; parameters: ORAC assay TE25 (trolox equivalents): dose or concentration left out as unconfirmed
Procedure: An ORAC assay was performed as disclosed in the literature (Huang, D. et al., J. Agric. Food Chem., 53, 1841-56, 2005).
AAPH (60 mM) and fluorescein (50 nM) were prepared in buffer (75 mM phosphate buffer, pH7.4) without a sample or a sample or a standard (Trolox). Each of the samples and the standard was suspended in a solution of 7% RMCD (randomly methylated beta-cyclodextrin) in 50% acetone. RMCD was used to increase the solubility of oil-soluble samples. Each sample was sufficiently mixed with fluorescein solution (66 nM, 190 μl) by shaking for 5 seconds. After incubation at 37° C. for 10 minutes, AAPH (500 mM, 30 μl) was quickly added to each sample, and a decrease in the fluorescence was measured using a fluorescence microplate reader (Ex=485 nm, Em=530 nm; SpectraMax GeminiEM, Molecular Devices, Sunnyvale, Calif.) at 37° C. at 5-min intervals for 9 hours. To quantify the activity of scavenging peroxyl radicals, AUC (area-under-the-curve) was calculated according to the following equation 2, and net AUC was calculated according to the following equation 3, and the TE (trolox equivalents) of each sample was calculated according to the following equation 4 based on a standard curve of net AUC plotted according to an increase in trolox concentration. AUC=(0.5+f1/f0+f2/f0+f3/f0+ . . . +fn−2/f0+fn−1/f0+fn/f0)×5, Equation 2
wherein f0 is the first fluorescence at 0 min and time I. Net AUC=AUCsample−AUCblank. Equation 3 TE(trolox equivalents) of each sample=[netAUCsample […]]/[net AUCtrolox […]]. Equation 4
as §1

COc1cc(C=CC2=CC(=O)[C@H]3C[C@@H]2C3(C)C)cc(O)c1O [Compound 3f, (1S,5R)-4-(3,4-dihydroxy-5-methoxystyryl)-6,6-dimethylbicyclo[3.1.1]hept-3-en-2-one]
NMDA-induced neuronal injury (cortical neurons): significantly reduced NMDA-induced neuronal injury | DPPH scavenging activity (in words) ([1]; compared to vitamin C at the same concentration): stronger scavenging activity compared to vitamin C | DPPH assay % inhibition ([1]; relative to vitamin C (Equation 1)): 83.64 ± 6.19% | ORAC assay Net AUC [2]: 99.06 ± 37.80 | ORAC assay TE25 (trolox equivalents) ([2]; net AUC sample / net AUC trolox): 2.83 ± 0.22
